From paper PMC5572076 (Xenobiotica; the fate of foreign compounds in biological …, 2016)
“Also recorded” adds a separate entry of the source. Like-named read-outs stand apart in the source and are kept apart here. Values belong to the compound of their own block, whether it stands above or below them.

How the values were obtained:
[1] = mice, cited from earlier work
HEK-EV cells = experiment: 14C-NAC uptake in HEK-empty vector control cells; assay type: in vitro ADME, human; settings: 200 μM probenecid, 25 min, n = 3
human OAT3 = biological target: T1, human OAT3 (Homo sapiens, UniProt Q8TCC7); experiment: 14C-NAC uptake in HEK-OAT3 cells
T1 sequence (Q8TCC7 1-542): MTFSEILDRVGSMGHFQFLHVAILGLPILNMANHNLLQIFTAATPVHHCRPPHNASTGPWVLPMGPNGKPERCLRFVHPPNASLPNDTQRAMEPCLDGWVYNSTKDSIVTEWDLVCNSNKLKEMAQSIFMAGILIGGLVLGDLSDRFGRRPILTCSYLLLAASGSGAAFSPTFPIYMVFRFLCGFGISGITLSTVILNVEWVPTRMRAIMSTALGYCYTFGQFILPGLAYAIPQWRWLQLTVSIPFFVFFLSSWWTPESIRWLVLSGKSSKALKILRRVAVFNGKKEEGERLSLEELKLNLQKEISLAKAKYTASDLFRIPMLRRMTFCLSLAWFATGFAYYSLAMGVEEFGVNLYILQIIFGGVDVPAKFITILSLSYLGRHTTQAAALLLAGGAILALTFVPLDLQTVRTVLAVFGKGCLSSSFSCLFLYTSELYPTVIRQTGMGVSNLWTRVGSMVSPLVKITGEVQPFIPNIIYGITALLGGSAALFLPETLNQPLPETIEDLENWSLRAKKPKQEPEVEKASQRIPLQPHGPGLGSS

Human MRP1 = Human MRP1 (Homo sapiens, UniProt P33527); experiment: Vesicular uptake assay, MRP1 membrane vesicles
[2] = ref Borgstrom et al., 1986; cited from earlier work
[3] = ref Giustarini et al., 2012; cited from earlier work
[4] = given into the carotid artery, rats; ref Neuwelt et al., 2001; cited from earlier work
[5] = NAC plasma pharmacokinetics with or without probenecid, intraperitoneal; assay type: in vivo, Sprague-Dawley rats; settings: juvenile rats
[6] = assay type: in vivo, Sprague-Dawley rats
human OAT1 = biological target: T2, human OAT1 (Homo sapiens, UniProt Q4U2R8)
T2 sequence (Q4U2R8 1-563): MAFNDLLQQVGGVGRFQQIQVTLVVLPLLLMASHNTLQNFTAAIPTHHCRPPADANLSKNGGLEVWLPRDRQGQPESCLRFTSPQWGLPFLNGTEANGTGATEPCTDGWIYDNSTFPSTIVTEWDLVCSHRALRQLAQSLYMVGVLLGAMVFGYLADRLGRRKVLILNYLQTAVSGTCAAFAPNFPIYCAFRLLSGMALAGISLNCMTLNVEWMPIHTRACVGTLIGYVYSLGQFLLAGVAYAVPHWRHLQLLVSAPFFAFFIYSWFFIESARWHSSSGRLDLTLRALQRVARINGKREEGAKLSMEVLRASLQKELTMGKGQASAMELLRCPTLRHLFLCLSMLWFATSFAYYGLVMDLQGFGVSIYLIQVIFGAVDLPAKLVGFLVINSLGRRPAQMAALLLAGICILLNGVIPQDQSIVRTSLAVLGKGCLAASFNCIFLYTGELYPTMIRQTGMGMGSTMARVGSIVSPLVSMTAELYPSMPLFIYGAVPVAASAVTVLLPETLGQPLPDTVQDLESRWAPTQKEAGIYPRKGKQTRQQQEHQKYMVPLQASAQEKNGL

Human MRP4 = biological target: T3, Human MRP4 (Homo sapiens, UniProt O15439); experiment: Vesicular uptake assay, MRP4 membrane vesicles
T3 sequence (O15439 1-1325): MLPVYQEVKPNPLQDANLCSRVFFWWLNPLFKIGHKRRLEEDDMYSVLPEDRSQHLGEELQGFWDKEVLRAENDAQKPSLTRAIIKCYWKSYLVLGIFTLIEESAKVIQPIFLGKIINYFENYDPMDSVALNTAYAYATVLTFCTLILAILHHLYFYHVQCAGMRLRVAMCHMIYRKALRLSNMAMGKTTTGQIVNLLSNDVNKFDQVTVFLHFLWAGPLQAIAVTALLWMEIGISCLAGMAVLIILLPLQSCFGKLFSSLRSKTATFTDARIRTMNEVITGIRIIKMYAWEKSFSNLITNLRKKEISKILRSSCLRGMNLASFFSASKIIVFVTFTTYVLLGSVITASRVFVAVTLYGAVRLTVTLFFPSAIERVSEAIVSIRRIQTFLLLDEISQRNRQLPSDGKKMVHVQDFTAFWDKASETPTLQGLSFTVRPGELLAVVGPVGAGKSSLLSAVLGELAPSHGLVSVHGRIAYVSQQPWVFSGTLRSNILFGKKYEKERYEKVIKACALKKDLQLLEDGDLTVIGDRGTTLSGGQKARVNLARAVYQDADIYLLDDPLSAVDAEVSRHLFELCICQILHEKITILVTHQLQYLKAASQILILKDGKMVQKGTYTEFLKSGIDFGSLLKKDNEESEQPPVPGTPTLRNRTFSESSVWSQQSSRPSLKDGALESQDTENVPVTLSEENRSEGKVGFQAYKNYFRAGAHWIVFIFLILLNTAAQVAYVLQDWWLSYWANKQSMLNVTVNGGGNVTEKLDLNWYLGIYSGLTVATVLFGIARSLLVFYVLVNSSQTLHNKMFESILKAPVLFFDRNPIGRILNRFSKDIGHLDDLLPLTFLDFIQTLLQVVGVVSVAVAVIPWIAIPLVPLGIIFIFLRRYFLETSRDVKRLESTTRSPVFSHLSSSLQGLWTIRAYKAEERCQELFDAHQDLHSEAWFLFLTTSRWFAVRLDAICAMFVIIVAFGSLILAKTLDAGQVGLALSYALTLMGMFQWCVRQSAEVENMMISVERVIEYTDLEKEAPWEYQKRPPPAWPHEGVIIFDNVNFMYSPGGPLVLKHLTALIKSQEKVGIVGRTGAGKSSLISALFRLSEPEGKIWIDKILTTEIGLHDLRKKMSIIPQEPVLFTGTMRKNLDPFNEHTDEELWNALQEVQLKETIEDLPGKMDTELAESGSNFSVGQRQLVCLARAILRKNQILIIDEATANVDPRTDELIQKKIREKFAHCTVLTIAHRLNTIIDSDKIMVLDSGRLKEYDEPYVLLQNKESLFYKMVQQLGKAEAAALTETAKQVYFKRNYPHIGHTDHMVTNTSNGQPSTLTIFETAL

[7] = OAT3-overexpressing cells, 25 μM NAC
[8] = in vitro uptake and inhibition experiments

Chain of Human MRP1 (P33527 whole entry): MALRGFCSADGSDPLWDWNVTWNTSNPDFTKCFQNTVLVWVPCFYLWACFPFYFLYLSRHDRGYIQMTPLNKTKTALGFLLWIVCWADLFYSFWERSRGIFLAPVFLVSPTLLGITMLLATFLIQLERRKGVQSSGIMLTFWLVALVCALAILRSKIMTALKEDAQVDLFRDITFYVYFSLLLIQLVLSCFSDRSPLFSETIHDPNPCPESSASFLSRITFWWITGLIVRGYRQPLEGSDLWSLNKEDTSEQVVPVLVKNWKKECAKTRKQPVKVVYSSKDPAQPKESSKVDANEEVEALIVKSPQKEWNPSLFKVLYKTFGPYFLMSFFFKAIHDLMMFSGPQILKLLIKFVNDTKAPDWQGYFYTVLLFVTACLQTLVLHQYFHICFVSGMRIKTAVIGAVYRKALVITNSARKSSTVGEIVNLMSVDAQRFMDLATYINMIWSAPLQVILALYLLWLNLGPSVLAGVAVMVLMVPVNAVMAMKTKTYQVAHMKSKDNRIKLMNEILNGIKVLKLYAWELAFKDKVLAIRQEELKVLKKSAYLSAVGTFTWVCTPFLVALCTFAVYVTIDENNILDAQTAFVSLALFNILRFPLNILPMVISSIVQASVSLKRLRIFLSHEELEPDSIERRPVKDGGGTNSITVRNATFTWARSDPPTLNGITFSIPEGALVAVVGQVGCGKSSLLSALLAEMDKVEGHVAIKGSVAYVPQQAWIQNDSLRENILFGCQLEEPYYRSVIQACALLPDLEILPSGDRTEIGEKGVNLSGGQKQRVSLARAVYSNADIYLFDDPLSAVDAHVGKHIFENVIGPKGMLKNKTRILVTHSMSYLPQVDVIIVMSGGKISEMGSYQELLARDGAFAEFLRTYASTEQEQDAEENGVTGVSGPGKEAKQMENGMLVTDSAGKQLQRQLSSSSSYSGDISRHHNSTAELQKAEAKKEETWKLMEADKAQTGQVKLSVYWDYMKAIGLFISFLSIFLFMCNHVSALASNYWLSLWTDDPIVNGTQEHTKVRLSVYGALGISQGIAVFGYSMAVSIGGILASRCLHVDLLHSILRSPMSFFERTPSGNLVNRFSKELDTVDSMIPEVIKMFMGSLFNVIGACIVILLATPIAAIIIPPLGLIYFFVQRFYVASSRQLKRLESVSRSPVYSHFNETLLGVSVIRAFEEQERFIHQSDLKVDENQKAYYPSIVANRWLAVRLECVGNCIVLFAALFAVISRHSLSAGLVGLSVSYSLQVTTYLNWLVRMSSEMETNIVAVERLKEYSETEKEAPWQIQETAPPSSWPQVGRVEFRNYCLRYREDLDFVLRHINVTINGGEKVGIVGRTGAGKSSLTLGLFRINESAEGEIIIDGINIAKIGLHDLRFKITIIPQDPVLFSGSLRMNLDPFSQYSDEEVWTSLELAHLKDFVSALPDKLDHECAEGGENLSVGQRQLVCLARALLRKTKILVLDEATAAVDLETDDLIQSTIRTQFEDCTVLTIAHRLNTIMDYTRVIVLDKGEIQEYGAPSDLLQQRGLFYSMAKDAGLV

SMILES: CC(=O)N[C@@H](CS)C(N)=O
- detection in the brain ([1]; IP and oral administration, ref Offen et al., 2004): able to detect

- decrease of NAC uptake by probenecid (human OAT3; OAT3, 200 μM probenecid pre-incubation 5 min, 10 min uptake, n = 3): 93.9%
SMILES: CCCN(CCC)S(=O)(=O)c1ccc(C(=O)O)cc1 [probenecid]
- effect of probenecid on NAC uptake by control cells (HEK-EV cells): no difference

- substrate status for MRP1 (Human MRP1; membrane vesicles): not a substrate
- saturation of concentration-dependent NAC uptake (human OAT3; HEK-OAT3, 10 min, up to 10 mM NAC): did not reach saturation
- NAC uptake rate (human OAT3; [7]): 37.7 ± 1.9 pmol/mg/min
- time up to which NAC uptake is linear (human OAT3; [7]): at least 15 minutes
- substrate status for OAT3 (human OAT3; [8]): substrate
- apparent plasma clearance (CL/F) ([5]; NAC 163 mg/kg ip alone): 1113 ± 29 mL/h/kg
- apparent plasma clearance (CL/F) ([5]; NAC 163 mg/kg ip in combination with probenecid 150 mg/kg ip): 674 ± 8.2 mL/h/kg
- NAC brain levels at late time points ([6]; NAC and probenecid group, up to last sampling time point (8 h)): remained measurable
- saturation of concentration-dependent NAC uptake (human OAT1; HEK-OAT1, 25 min, up to 10 mM NAC): did not reach saturation
- NAC uptake rate (human OAT1; OAT1-overexpressing cells, 25 μM NAC): 4.2 ± 0.1 pmol/mg/min
- time up to which NAC uptake is linear (human OAT1; OAT1-overexpressing cells, 25 μM NAC, latest time point measured): ≥ 42.5 min
- substrate status for OAT1 (human OAT1; [8]): substrate
- substrate status for MRP4 (Human MRP4; membrane vesicles): not a substrate
SMILES: CC(=O)N[C@@H](CS)C(=O)O [NAC, N-acetylcysteine]
- ATP-dependent, transporter-mediated uptake of NAC vs AMP (negative control) (Human MRP1; MRP1 vesicles, 25 μM NAC): No uptake; also recorded: not statistically different
- renally eliminated [2]: approximately 30%
- log D [3]: −5.4
- crossing of the BBB [4]: can cross the BBB
- NAC brain levels at late time points ([6]; NAC only group, 6 h and 8 h time points): below the limit of quantificaiton; also recorded: below limit of quantification
- ATP-dependent, transporter-mediated uptake of NAC vs AMP (negative control) (Human MRP4; MRP4 vesicles, 25 μM NAC): No uptake; also recorded: not statistically different
- levels in the brain ([1]; IP administration, ref Erickson et al., 2012): low levels of NAC were measurable

SMILES: C[C@]12CC[C@@H]3c4ccc(O)cc4CC[C@H]3[C@@H]1CC[C@@H]2O[C@@H]1O[C@H](C(=O)O)[C@@H](O)[C@H](O)[C@H]1O [E217βG, estradiol-17β-D- glucuronide]
- ATP-dependent uptake of positive control substrate (Human MRP4; MRP4 vesicles, 0.25–100 μM, 0.5 minutes): saturable uptake
